Source: patent publication US12599582B2, “Pyrrole compounds” (ALIGOS THERAPEUTICS, INC., priority 2019, dated 2026)
pEC50: −log10 of the molar value.

The compounds below were run on HBV (assay: HBV-DNA Antiviral Assay Using HepG2.2.15 Cells (extracellular HBV DNA by qPCR)). Settings: HBV DNA inhibition, HepG2.2.15 cells, extracellular HBV DNA by qPCR; read-out: EC50.
Type: cell-based, hepatitis B virus (HBV)
Method in brief: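 HepG2.2.15 cells were treated on day 1 with 8 concentrations (4-fold dilutions, duplicate; 0.5% DMSO), with compound-containing medium refreshed on day 4, at 37 °C. On day 7, supernatant HBV DNA was measured by qPCR against a plasmid standard curve, with inhibition normalised between DMSO and ETV controls. EC50/EC90 and CC50 (CellTiter-Glo ATP) came from variable-slope fits.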

Compound | pEC50
Cc1c(C(=O)C(=O)NC2(c3cnn(C4CC4)n3)CC(F)(F)C2)c(C)n(C)c1C(=O)Nc1ccc(F)c(C(F)(F)F)c1 [Compound 142, 4-[2-[[1-(2-cyclopropyltriazol-4-yl)-3,3-difluoro-cyclobutyl]amino]-2-oxo-acetyl]-N-[4-fluoro-3-(trifluoromethyl)phenyl]-1,3,5-trimethyl-pyrrole-2-carboxamide] | 8.00 to 9.00
Cc1c(C(=O)C(=O)NC2(c3cn(C4CC4)nn3)CC(F)(F)C2)c(C)n(C)c1C(=O)Nc1ccc(F)c(C(F)(F)F)c1 [Compound 146, 4-[2-[[1-(1-cyclopropyltriazol-4-yl)-3,3-difluoro-cyclobutyl]amino]-2-oxo-acetyl]-N-[4-fluoro-3-(trifluoromethyl)phenyl]-1,3,5-trimethyl-pyrrole-2-carboxamide] | 8.00 to 9.00
Cc1c(C(=O)C(=O)NC(C)(C)c2ccc(F)cn2)c(C)n(C)c1C(=O)Nc1ccc(F)c(C(F)(F)F)c1 [Compound 147, 4-[2-[[l-(5-fluoro-2-pyridyl)-1-methyl-ethyl]amino]-2-oxo-acetyl]-N-[4-fluoro-3-(trifluoromethyl)phenyl]-1,3,5-trimethyl-pyrrole-2-carboxamide] | 8.00 to 9.00

Same assay, conditions: Hepatitis B virus; HBV DNA inhibition, HepG2.2.15 cells, extracellular HBV DNA by qPCR; read-out: EC50

Compound | pEC50
Cc1c(C(=O)C(=O)NC2(C#CC3(O)CC3)COC2)c(C)n(C)c1C(=O)Nc1ccc(F)c(C#N)c1 [Compound 102, N-(3-cyano-4-fluoro-phenyl)-4-[2-[[3-[2-(1-hydroxycyclopropyl)ethynyl]oxetan-3-yl]amino]-2-oxo-acetyl]-1,3,5-trimethyl-pyrrole-2-carboxamide] | 8.00 to 9.00
Cc1c(C(=O)C(=O)NC(C)(C)c2nccs2)c(C)n(C)c1C(=O)Nc1ccc(F)c(C(F)(F)F)c1 [Compound 103, N-[4-fluoro-3-(trifluoromethyl)phenyl]-1,3,5-trimethyl-4-[2-[(1-methyl-1-thiazol-2-yl-ethyl)amino]-2-oxo-acetyl]pyrrole-2-carboxamide] | 8.00 to 9.00
Cc1c(C(=O)C(=O)NC(C)(C)c2c[nH]cn2)c(C)n(C)c1C(=O)Nc1ccc(F)c(C#N)c1 [Compound 104, N-(3-cyano-4-fluoro-phenyl)-4-[2-[[1-(1H-imidazol-4-yl)-1-methyl-ethyl]amino]-2-oxo-acetyl]-1,3,5-trimethyl-pyrrole-2-carboxamide] | 8.00 to 9.00
C#CC1(N(COC(=O)[C@@H](N)C(C)C)C(=O)C(=O)c2c(C)c(C(=O)Nc3ccc(F)c(C#N)c3)n(C)c2C)COC1 [Compound 105, [[2-[5-[(3-cyano-4-fluoro-phenyl)carbamoyl]-1,2,4-trimethyl-pyrrol-3-yl]-2-oxo-acetyl]-(3-ethynyloxetan-3-yl)amino]methyl-(2S)-2-amino-3-methyl-butanoate] | 8.00 to 9.00
Cc1c(C(=O)C(=O)NC(C)(C)c2c[nH]cn2)c(C)n(C)c1C(=O)Nc1ccc(F)c(C(F)(F)F)c1 [Compound 106, N-[4-fluoro-3-(trifluoromethyl)phenyl]-4-[2-[[1-(1H-imidazol-4-yl)-1-methyl-ethyl]amino]-2-oxo-acetyl]-1,3,5-trimethyl-pyrrole-2-carboxamide] | 8.00 to 9.00
C#CC1(NC(=O)C(=O)c2c(C)c(C(=O)Nc3ccc(F)c(C#N)c3)n(C)c2C)CCOCC1 [Compound 107, N-(3-cyano-4-fluoro-phenyl)-4-[2-[(4-ethynyltetrahydropyran-4-yl)amino]-2-oxo-acetyl]-1,3,5-trimethyl-pyrrole-2-carboxamide] | 8.00 to 9.00
C#CC1(NC(=O)C(=O)c2c(C)c(C(=O)Nc3ccc(F)c(C#N)c3)n(C)c2C)CCS(=O)(=O)CC1 [Compound 108, N-(3-cyano-4-fluoro-phenyl)-4-[2-[(4-ethynyl-1,1-dioxo-thian-4-y1)amino]-2-oxo-acetyl]-1,3,5-trimethyl-pyrrole-2-carboxamide] | 8.00 to 9.00
C#CC1(NC(=O)C(=O)c2c(C)c(C(=O)Nc3ccc(F)c(C#N)c3)n(C)c2C)CCCC1 [Compound 109, N-(3-cyano-4-fluoro-phenyl)-4-[2-[(1-ethynylcyclopentyl)amino]-2-oxo-acetyl]-1,3,5-trimethyl-pyrrole-2-carboxamide] | 8.00 to 9.00
Cc1c(C(=O)C(=O)NC(C)(C)c2ncc[nH]2)c(C)n(C)c1C(=O)Nc1ccc(F)c(C#N)c1 [Compound 131, N-(3-cyano-4-fluoro-phenyl)-4-[2-[[1-(1H-imidazol-2-yl)-1-methyl-ethyl]amino]-2-oxo-acetyl]-1,3,5-trimethyl-pyrrole-2-carboxamide] | 8.00 to 9.00
Cc1c(C(=O)C(=O)NC(C)(C)c2ncc[nH]2)c(C)n(C)c1C(=O)Nc1ccc(F)c(C(F)(F)F)c1 [Compound 132, N-[4-fluoro-3-(trifluoromethyl)phenyl]-4-[2-[[1-(1H-imidazol-2-yl)-1-methyl-ethyl]amino]-2-oxo-acetyl]-1,3,5-trimethyl-pyrrole-2-carboxamide] | 8.00 to 9.00
C#CC1(NC(=O)C(=O)c2c(C)c(C(=O)Nc3ccc(Cl)c(Br)c3)n(C)c2C)CC(F)(F)C1 [Compound 133, N-(3-bromo-4-chloro-phenyl)-4-[2-[(1-ethynyl-3,3-difluoro-cyclobutyl)amino]-2-oxo-acetyl]-1,3,5-trimethyl-pyrrole-2-carboxamide] | 8.00 to 9.00
C#CC1(NC(=O)C(=O)c2c(C)c(C(=O)Nc3ccc(Br)c(Cl)c3)n(C)c2C)CC(F)(F)C1 [Compound 134, N-(4-bromo-3-chloro-phenyl)-4-[2-[(1-ethynyl-3,3-difluoro-cyclobutyl)amino]-2-oxo-acetyl]-1,3,5-trimethyl-pyrrole-2-carboxamide] | 8.00 to 9.00
Cc1c(C(=O)C(=O)NC(C)(C)c2cnn(C3CC3)c2)c(C)n(C)c1C(=O)Nc1ccc(F)c(C#N)c1 [Compound 135, N-(3-cyano-4-fluoro-phenyl)-4-[2-[[1-(1-cyclopropylpyrazol-4-yl)-1-methyl-ethyl]amino]-2-oxo-acetyl]-1,3,5-trimethyl-pyrrole-2-carboxamide] | 8.00 to 9.00
Cc1c(C(=O)C(=O)NC(C)(C)c2cnn(C3CC3)c2)c(C)n(C)c1C(=O)Nc1ccc(F)c(C(F)(F)F)c1 [Compound 136, 4-[2-[[1-(1-cyclopropylpyrazol-4-yl)-1-methyl-ethyl]amino]-2-oxo-acetyl]-N-[4-fluoro-3-(trifluoromethyl)phenyl]-1,3,5-trimethyl-pyrrole-2-carboxamide] | 8.00 to 9.00
Cc1c(C(=O)C(=O)NC(C)(C)c2ccnn2C)c(C)n(C)c1C(=O)Nc1ccc(F)c(C#N)c1 [Compound 137, N-(3-cyano-4-fluoro-phenyl)-1,3,5-trimethyl-4-[2-[[1-methyl-1-(2-methylpyrazol-3-yl)ethyl]amino]-2-oxo-acetyl]pyrrole-2-carboxamide] | 8.00 to 9.00
Cc1c(C(=O)C(=O)NC(C)(C)c2ccnn2C)c(C)n(C)c1C(=O)Nc1ccc(F)c(C(F)(F)F)c1 [Compound 138, N-[4-fluoro-3-(trifluoromethyl)phenyl]-1,3,5-trimethyl-4-[2-[[1-methyl-1-(2-methylpyrazol-3-yl)ethyl]amino]-2-oxo-acetyl]pyrrole-2-carboxamide] | 8.00 to 9.00
Cc1c(C(=O)C(=O)NC(C)(C)c2nnco2)c(C)n(C)c1C(=O)Nc1ccc(F)c(C#N)c1 [Compound 139, N-(3-cyano-4-fluoro-phenyl)-1,3,5-trimethyl-4-[2-[[1-methyl-1-(1,3,4-oxadiazol-2-yl)ethyl]amino]-2-oxo-acetyl]pyrrole-2-carboxamide] | 8.00 to 9.00
Cc1c(C(=O)C(=O)NC(C)(C)c2cscn2)c(C)n(C)c1C(=O)Nc1ccc(F)c(C#N)c1 [Compound 140, N-(3-cyano-4-fluoro-phenyl)-1,3,5-trimethyl-4-[2-[(1-methyl-1-thiazol-4-yl-ethyl)amino]-2-oxo-acetyl]pyrrole-2-carboxamide] | 8.00 to 9.00
Cc1c(C(=O)C(=O)NC(C)(C)c2cscn2)c(C)n(C)c1C(=O)Nc1ccc(F)c(C(F)(F)F)c1 [Compound 141, N-[4-fluoro-3-(trifluoromethyl)phenyl]-1,3,5-trimethyl-4-[2-[(1-methyl-1-thiazol-4-yl-ethyl)amino]-2-oxo-acetyl]pyrrole-2-carboxamide] | 8.00 to 9.00
Cc1c(C(=O)C(=O)NC(C)(C)c2nnco2)c(C)n(C)c1C(=O)Nc1ccc(F)c(C(F)(F)F)c1 [Compound 143, N-[4-fluoro-3-(trifluoromethyl)phenyl]-1,3,5-trimethyl-4-[2-[[1-methyl-1-(1,3,4-oxadiazol-2-yl)ethyl]amino]-2-oxo-acetyl]pyrrole-2-carboxamide] | 8.00 to 9.00
Cc1c(C(=O)C(=O)NC(C)(C)c2cncnc2)c(C)n(C)c1C(=O)Nc1ccc(F)c(C#N)c1 [Compound 144, N-(3-cyano-4-fluoro-phenyl)-1,3,5-trimethyl-4-[2-[(1-methyl-1-pyrimidin-5-yl-ethyl)amino]-2-oxo-acetyl]pyrrole-2-carboxamide] | 8.00 to 9.00
Cc1c(C(=O)C(=O)NC(C)(C)c2ccc(F)cn2)c(C)n(C)c1C(=O)Nc1ccc(F)c(C#N)c1 [Compound 145, N-(3-cyano-4-fluoro-phenyl)-4-[2-[[1-(5-fluoro-2-pyridyl)-1-methyl-ethyl]amino]-2-oxo-acetyl]-1,3,5-trimethyl-pyrrole-2-carboxamide] | 8.00 to 9.00
Cc1c(C(=O)C(=O)NC(C)(C)c2cncnc2)c(C)n(C)c1C(=O)Nc1ccc(F)c(C(F)(F)F)c1 [Compound 148, N-[4-fluoro-3-(trifluoromethyl)phenyl]-1,3,5-trimethyl-4-[2-[(1-methyl-1-pyrimidin-5-yl-ethyl)amino]-2-oxo-acetyl]pyrrole-2-carboxamide] | 8.00 to 9.00
Cc1c(C(=O)C(=O)NC(C)(C)c2cn(C)cn2)c(C)n(C)c1C(=O)Nc1ccc(F)c(C(F)(F)F)c1 [Compound 149, N-[4-fluoro-3-(trifluoromethyl)phenyl]-1,3,5-trimethyl-4-[2-[[1-methyl-1-(1-methylimidazol-4-yl)ethyl]amino]-2-oxo-acetyl]pyrrole-2-carboxamide] | 6.00 to 7.00
